Measured values: US20230302159A1, “COMPOUNDS AND COMPOSITIONS FOR TUMOR DETECTION AND SURGICAL GUIDANCE” (Cornell University, priority 2020, published 2023)
Several values for one entry are separate records, joined by “and”; a condition that tells them apart may be missing. Equal values may be shown once.

Key:
RFP-ovsaho tumors = experiment: In vivo imaging study, spray on about 2 mm subcutaneous RFP-ovsaho tumors (Example 1); set-up: species or system mice; details: for tumor contrast after spray: 2 μM sprayed, no washing
Procedure: In vivo imaging study. The animals inoculated with RFP-ovsaho cells in flank were used for the imaging study. To imitate the morphology of metastasized human ovarian cancer, the tumor size was controlled to 2 mm. The skin was removed prior to the spray of dye (2 μM, in saline). The tumor areas were sprayed and imaged using Cy7 filter set at different time points. RFP images were also acquired for tumor co-registration. The contrast ratio was calculated by [signal of tumor]/[signal of adjacent muscle]. Following the in vitro and cellular validation, we thought that the best candidate, CypH-11, which has excellent fluorescence property in different pH and in cells, could be an ideal agent to augment the detection of small cancerous lesions otherwise unnoticeable to surgeons. To verify the presumption, RFP positive ovsaho ovarian cancer cells were subcutaneously inoculated in mice. When tumors were about 2 mm in size, the skin was removed and the CypH-11 solution (2 μM in saline) was sprayed onto the tumor areas. […] The contrast continued to increase slightly and quickly reached plateau at ˜7 min. The tumor signal is about 150% higher than the adjacent muscle tissues, and the CypH-11 signal co-registered well with the RFP signal. […] In a separate set of experiment, animals were inoculated with two tumors. Each tumor was sprayed either with the prototype dye CypH-1 or CypH-11, and imaged simultaneously.

[1] = Optical properties of the CypH dyes: absorbance maximum and extinction coefficient in EtOH (Table 1); format: physicochemical; details: for Ex Coeff (M^−1cm^−1) @ Abs Max: at absorbance maximum
Procedure: (§1) Characterization: All new CypH dyes were characterized by proton NMR and mass spectrometry to confirm identity. NMR data was consistent with the structure and mass spectrometry results gave the expected mass of the dye±0.5 amu. An HPLC method was developed (see below) and used to assess dye purity. […] Retention times on the column generally correlated with lipophilicity of the dyes with water soluble dyes containing sulfate groups eluting out earlier (@10.6 min for CypH-3, 6, 9) than CypH-1 (@11.9 min) and the more lipophilic dyes later. Optical properties of the dyes, acid dissociation constants and solubilities were also determined. Synthetic intermediates were also characterized by proton NMR.

[2] = Solubility of the CypH dyes (Table 1); format: physicochemical; details: organic solvent or mixture; in EtOH; read-out: Solubility
Procedure: as §1

OVASAHO cells [3] = experiment: Cell viability, cell counting kit-8 (CCK-8); format: cell-based; details: 2 μM for 1 hr, then 72 hrs in fresh medium
Procedure: Cell viability. The cell viability of CypH-11 and CypH-1 were evaluated using the cell counting kit-8 (CCK-8) from Dojindo (Rockville, MD). OVASAHO cells (5.0×10^3) were seeded on a 96-well plate and cultured for 24 hrs. Then the cells were treated with CypH-11 (2 μM) and CypH-1 (2 μM) for 1 hr. After replacing the medium with fresh cell culture medium, the cells were incubated for another 72 hrs. The cell viability was examined by treating them with CCK-8 solution for 3 hrs and reading the absorbance at 450 nm using a plate reader.

[4] = Absorbance and fluorescence spectra (excitation/emission maxima); format: physicochemical
OVASAHO cells [5] = experiment: In vitro fluorescence microscopy and intracellular localization; format: cell-based; details: 2 μM, 1 hr; for Pearson value, overlap with the mitochondria tracker: co-staining with mitochondria tracker; for cellular fluorescence image in the presence of dye-containing medium (no washing): without washing
Procedure: Evaluation of CypH-11 in cancer cells. An ovarian cancer cell line, OVASAHO, was used to evaluate the performance of CypH-11, CypH-1, and Cy7. OVASAHO cells were incubated with the respective probe (2 μM) for 1 hr, and the cellular fluorescence images were captured in the presence of the dye-containing medium (FIG. 13A). […] This distinct difference is because of the pH sensitivity of CypH-11 and CypH-1. Both of them have low fluorescence in the cell culture medium (pH=7.4), but their fluorescence is turned on upon entering the cellular acidic compartments. […] After washing with a fresh culture medium, the cell images were captured again (FIG. 19). […] The intracellular distribution of dyes was investigated by co-staining with mitochondrial, lysosomal and nuclear trackers (FIG. 13B).
In vitro fluorescence microscopy. OVASAHO cells were used to compare the cellular performance and cellular distribution of CypH-11, CypH-1, and Cy7. OVASAHO cells (1.0×10^4) were seeded on a 96-well black plate (Corning, NY) and incubated in the supplemented medium for 24 hrs. Compounds (2 μM) were added and the cells were incubated for 1 hr. Before PBS washing, the cellular fluorescence images were captured with a fluorescence microscope (Cy7 filter, excitation: 690-730 nm and emission: 770-850 nm). After PBS washing (3×), the cellular images were captured again. For the co-localization experiment, OVASAHO cells (5.0×10^3) were incubated on a 96 well plate (ibiTreat, 180 μm coverslip, ibidi) with a clear and flat bottom. After treatment with CypH-11 (2 μM) or CypH-1 (2 μM) for 1 hr, the cells were washed with medium (3×). The cells were stained with Mitoview Green (Biotium, Parkway Fremont, CA) for 15 min or Lysoview 488 (Biotium) for 30 min. After washing with medium (3×), cells were further stained with DAPI (Invitrogen) for 10 min. The fluorescence images were captured using a fluorescence microscope (EVOS) after replacing the medium with a fresh cell culture medium. CypH-11 and CypH-1 images were obtained with a Cy7 filter, DAPI images with a DAPI filter (excitation: 352-402 nm and emission: 417-477 nm), Mitoview Green and Lysoview 488 images with a GFP filter (excitation: 457-487 nm and emission: 502-538 nm).

[6] = conditions not stated, previously published lead probe

Structure (SMILES)	tumor contrast after spray (RFP-ovsaho tumors)	Ex Coeff (M^−1cm^−1) @ Abs Max [1]	Abs. Max (nm) in EtOH [1] [nm]	Solubility [2] [µM]	cell viability (OVASAHO cells [3]) [%]	emission maximum [4, 6] [nm]	excitation maximum [4, 6] [nm]	cellular fluorescence after washing (OVASAHO cells [5])	Pearson value, overlap with the mitochondria tracker (OVASAHO cells [5])	cellular fluorescence image in the presence of dye-containing medium (no washing) (OVASAHO cells [5])	time to contrast plateau (RFP-ovsaho tumors; 2 μM in saline, sprayed) [min]	tumor signal higher than the adjacent muscle tissues (RFP-ovsaho tumors; 2 μM in saline, sprayed)	time to fluorescent signal highlighting the tumor after spray (RFP-ovsaho tumors; 2 μM in saline, sprayed, about 2 mm tumors)	Emmax / emission maximum ([4]; 2 μM, pH 5.0 phosphate buffer) [nm]	Exmax / absorbance maximum ([4]; 2 μM, pH 5.0 phosphate buffer)
CN(C)c1ccc(OC2=C(/C=C/C3=[N+](C)c4ccccc4C3(C)C)CCC/C2=C\C=C2\N(C)c3ccccc3C2(C)C)cc1.[Cl-] [CypH-1, reference compound]	minimally contrast	74,450 M^−1cm^−1	760	> 1000	95.5±6.9	777	760	high fluorescence	0.90	Strong intracellular fluorescence and low medium fluorescence					
CC(C)N(C)c1ccc(OC2=C(/C=C/C3=[N+](C(C)C)c4ccccc4C3(C)C)CCC/C2=C\C=C2\N(C(C)C)c3ccccc3C2(C)C)cc1.[I-] [CypH-11]	near instant signal enhancement	233,800 M^−1cm^−1	771	> 1000	91.0±4.6			high fluorescence	0.70	Strong intracellular fluorescence and low medium fluorescence	~7	about 150%	within a minute	785	766 nm and 765 nm
